Legend:
[1] = CTG assay: cytotoxicity in CellTiter-Glo Luminescent Cell Viability Assay; assay type: cell-based; settings: MT4-GFP cells, 10% normal human serum, 48 h incubation
Description: Assessing Cytotoxicity in CellTiter-Glo Luminescent Cell Viability Assay (CTG).
MT4-GFP cells were seeded in RPMI 1640 supplemented with 10% fetal bovine serum, 100 U/mL penicillin/streptomycin overnight at 37° C./5% CO2/90% relative humidity. Cells were then washed and resuspended in RPMI 1640 containing 10% normal human serum at a density of 0.8×10^5 cells/mL. Compound plates were prepared by dispensing compounds dissolved in DMSO into wells of 384 well solid black plates (Corning 3571) using an ECHO acoustic dispenser (0.2 μl/well). […] Controls included DMSO. Cells were added (50 μL/well) to compound plates and were maintained at 37° C./5% CO2/90% relative humidity. CTG reagent (Promega, G7573) was added to the cell plates after 48 h incubation according to the manufacturer's description. Luminescence signals were recorded on EnVision plate reader (PerkinElmer). CC50s were determined by non-linear 4-parameter curve fitting. The resulting data is shown in Table 3 with the marketed HIV nucleoside reverse transcriptase inhibitor AZT (azidothymidine, zidovudine) included as a control.

[2] = test system: HIV-1 (H9IIIB virus) replication in MT4-GFP cells; assay: Viking assay: antiviral potency in a multiple round HIV-1 infection assay; assay type: cell-based; settings: Human immunodeficiency virus 1; 10% normal human serum; MT4-GFP cells infected with H9IIIB virus; inhibition of reproductive ratio R0; read-out: Viking, IC50 (10%NHS)
Description: Assessing antiviral potency in a multiple round HIV-1 infection assay. HIV-1 replication was monitored using MT4-gag-GFP clone D3 (hereafter designate MT4-GFP), which are MT-4 cells modified to harbor a GFP reporter gene, the expression of which is dependent on the HIV-1 expressed proteins tat and rev. Productive infection of an MT4-GFP cell with HIV-1 results in GFP expression approximately 24 h post-infection.
MT4-GFP cells were maintained at 37° C./5% CO2/90% relative humidity in RPMI 1640 supplemented with 10% fetal bovine serum, 100 U/mL penicillin/streptomycin, and 400 μg/mL G418 to maintain the reporter gene. For infections, MT4-GFP cells were placed in the same medium lacking G418 and infected overnight with H9IIIB virus at an approximate multiplicity of infection of 0.01 in the same incubation conditions. Cells were then washed and re-suspended in either RPMI 1640 containing 10% or 50% normal human serum at 1.6×10^5 cells/mL. Compound plates were prepared by dispensing compounds dissolved in DMSO into wells of 384 well poly D lysine-coated plates (0.2 μl/well) using an ECHO acoustic dispenser. Each compound was tested in a 10 point serial 3-fold dilution (typical final concentrations: 8.4 μM-0.43 nM). Controls included no inhibitor (DMSO only) and a combination of three antiviral agents (efavirenz, indinavir, and an integrase strand transfer inhibitor at final concentrations of 4 μM each). Cells were added (50 μL/well) to compound plates and the infected cells were maintained at 37° C./5% CO2/90% relative humidity.
Infected cells were quantified at two time points, ˜48 h and ˜72 h post-infection, by counting the number of green cells in each well using an Acumen eX3 scanner. The increase in the number of green cells over ˜24 h period gives the reproductive ratio, R0, which is typically 5-15 and has been shown experimentally to be in logarithmic phase (data not shown). Inhibition of R0 is calculated for each well, and IC50s determined by non-linear 4-parameter curve fitting.

For Cc1cn([C@H]2C[C@H](N=[N+]=[N-])[C@@H](CO)O2)c(=O)[nH]c1=O [AZT, 3′-azido-3′-deoxythymidine, reference compound], the CC50 at 48 h [1] was > 8.4 µM and the IC50 [2] was 0.037 µM.
For [2H][C@@]1(O)C[C@H](n2cc(F)c3c(N)ncnc32)O[C@]1(C#C)CO [Example 1], the CC50 at 48 h [1] was > 42 µM and the IC50 [2] was 2.31 µM.
Work on [2H][C@]1(O)C[C@H](n2cc(F)c3c(N)ncnc32)O[C@]1(C#C)CO [Example 2, (2R,3S,5R)-5-{4-amino-5-fluoro-7H-pyrrolo[2,3-d]pyrimidin-7-yl}-2-ethynyl-2-(hydroxymethyl)(3-^2H)oxolan-3-ol] yielded a CC50 at 48 h [1] of 31.9 µM and an IC50 [2] of 0.0031 µM.
In the case of [2H][C@]1(O)C[C@H](n2cnc3c(N)nc(F)nc32)O[C@]1(C#C)CO [Example 3, (2R,3S,5R)-5-(6-amino-2-fluoro-9H-purin-9-yl)-2-ethynyl-2-(hydroxymethyl)(3-^2H)oxolan-3-ol], the CC50 at 48 h [1] is reported as > 42 µM and the IC50 [2] is reported as 0.0012 µM.
With [2H][C@@]1(O)C[C@H](n2cnc3c(N)nc(F)nc32)O[C@]1(C#C)CO [Example 4, (2R,3R,5R)-5-(6-amino-2-fluoro-9H-purin-9-yl)-2-ethynyl-2-(hydroxymethyl)(3-^2H)oxolan-3-ol] the CC50 at 48 h [1] was > 42 µM and the IC50 [2] was 1.19 µM.
With [2H][C@@]1(O)C[C@H](n2ccc3c(N)nc(Cl)nc32)O[C@]1(C#C)CO [Example 5, (2R,3R,5R)-5-(4-amino-2-chloro-7H-pyrrolo[2,3-d]pyrimidin-7-yl)-2-ethynyl(3-^2H)-2-(hydroxymethyl)-tetrahydrofuran-3-ol] the CC50 at 48 h [1] was > 42 µM and the IC50 [2] was > 42 µM.
For [2H][C@]1(O)C[C@H](n2ccc3c(N)nc(Cl)nc32)O[C@]1(C#C)CO [Example 6, (2R,3S,5R)-5-(4-amino-2-chloro-7H-pyrrolo[2,3-d]pyrimidin-7-yl)-2-ethynyl(3-^2H)-2-(hydroxymethyl)-tetrahydrofuran-3-ol], the CC50 at 48 h [1] was > 42 µM and the IC50 [2] was 0.0106 µM.
For [2H]C(O)[C@@]1(C#C)O[C@@H](n2cnc3c(N)nc(F)nc32)C[C@@H]1O (stereo partly drawn) [Example 7, [(2R,3S,5R)-5-(6-amino-2-fluoro-9H-purin-9-yl)-3-oxhydryl-2-ethynyloxolan-2-yl](^2H)-methanol], the CC50 at 48 h [1] was > 42 µM and the IC50 [2] was 0.0007 µM.
For [2H]C([2H])(O)[C@@]1(C#C)O[C@@H](n2cnc3c(N)nc(F)nc32)C[C@@H]1O [Example 8, [(2R,3S,5R)-5-(6-amino-2-fluoro-9H-purin-9-yl)-3-oxhydryl-2-ethynyloxolan-2-yl](^2H2)methanol], the CC50 at 48 h [1] was > 42 µM and the IC50 [2] was 0.0011 µM.
In the case of [2H]C#C[C@]1(CO)O[C@@H](n2cnc3c(N)nc(F)nc32)C[C@@H]1O [Example 9, (2R,3S,5R)-5-(6-amino-2-fluoro-9H-purin-9-yl)-2-(^2H)ethynyl-2-(hydroxymethyl)oxolan-3-ol], the CC50 at 48 h [1] is reported as > 42 µM and the IC50 [2] is reported as 0.0006 µM.
For [2H]C(O)[C@@]1(C#C)O[C@@H](n2ccc3c(N)nc(Cl)nc32)C[C@@H]1O (stereo partly drawn) [Example 10, (2R,3S,5R)-5-{4-amino-2-chloro-7H-pyrrolo[2,3-d]pyrimidin-7-yl}-2-ethynyl-2-[hydroxy(^2H)methyl]oxolan-3-ol], the CC50 at 48 h [1] was > 42 µM and the IC50 [2] was 0.0055 µM.
With [2H]C([2H])(O)[C@@]1(C#C)O[C@@H](n2ccc3c(N)nc(Cl)nc32)C[C@@H]1O [Example 11, (2R,3S,5R)-5-{4-amino-2-chloro-7H-pyrrolo[2,3-d]pyrimidin-7-yl}-2-ethynyl-2-[hydroxy(^2H2)methyl]oxolan-3-ol] the CC50 at 48 h [1] was > 42 µM and the IC50 [2] was 0.0056 µM.
In the case of [2H]C#C[C@]1(CO)O[C@@H](n2ccc3c(N)nc(Cl)nc32)C[C@@H]1O [Example 12, (2R,3S,5R)-5-{4-amino-2-chloro-7H-pyrrolo[2,3-d]pyrimidin-7-yl}-2-(^2H)ethynyl-2-(hydroxymethyl)oxolan-3-ol], the CC50 at 48 h [1] is reported as > 42 µM and the IC50 [2] is reported as 0.0046 µM.
For [2H][C@]1(n2cnc3c(N)nc(F)nc32)C[C@H](O)[C@@](C#C)(CO)O1 [Example 13, (2R,3S,5R)-5-(6-amino-2-fluoro-9H-purin-9-yl)-2-ethynyl-2-(hydroxymethyl)tetrahydrofuran-5-^2H-3-ol], the CC50 at 48 h [1] was > 42 µM and the IC50 [2] was 0.0002 µM.
In the case of [2H][C@]1(n2ccc3c(N)nc(Cl)nc32)C[C@H](O)[C@@](C#C)(CO)O1 [Example 14, (2R,3S,5R)-5-(4-amino-2-chloro-7H-pyrrolo[2,3-d]pyrimidin-7-yl)-2-ethynyl-2-(hydroxymethyl)tetrahydrofuran-5-^2H-3-ol], the CC50 at 48 h [1] is reported as > 42 µM and the IC50 [2] is reported as 0.0003 µM.
